Laboratory results published in patent publication US8143248B2, “Tricyclic N-heteroaryl-carboxamide derivatives containing a benzimidazole unit, method for preparing same and their therapeutic use” (Sanofi-Aventis, priority 2006, dated 2012).

Columns and labels:
TRPV1 receptors = target: T1, TRPV1 receptors (Mus musculus, UniProt Q704Y3); assay: Mouse corneal irritation test (capsaicin-induced eye rubbing); assay type: in vivo; settings: compound 500 μM, 2 μl on the cornea 10 minutes before capsaicin 160 μM; eye rubs counted over 2 minutes
T1 construct: application of a very small amount of capsaicin (2 μl at a concentration of 160 μM) to the surface of the cornea of an animal; from tissue; host or cells: mouse cornea in vivo (C fibres)
T1 sequence (Q704Y3 whole entry): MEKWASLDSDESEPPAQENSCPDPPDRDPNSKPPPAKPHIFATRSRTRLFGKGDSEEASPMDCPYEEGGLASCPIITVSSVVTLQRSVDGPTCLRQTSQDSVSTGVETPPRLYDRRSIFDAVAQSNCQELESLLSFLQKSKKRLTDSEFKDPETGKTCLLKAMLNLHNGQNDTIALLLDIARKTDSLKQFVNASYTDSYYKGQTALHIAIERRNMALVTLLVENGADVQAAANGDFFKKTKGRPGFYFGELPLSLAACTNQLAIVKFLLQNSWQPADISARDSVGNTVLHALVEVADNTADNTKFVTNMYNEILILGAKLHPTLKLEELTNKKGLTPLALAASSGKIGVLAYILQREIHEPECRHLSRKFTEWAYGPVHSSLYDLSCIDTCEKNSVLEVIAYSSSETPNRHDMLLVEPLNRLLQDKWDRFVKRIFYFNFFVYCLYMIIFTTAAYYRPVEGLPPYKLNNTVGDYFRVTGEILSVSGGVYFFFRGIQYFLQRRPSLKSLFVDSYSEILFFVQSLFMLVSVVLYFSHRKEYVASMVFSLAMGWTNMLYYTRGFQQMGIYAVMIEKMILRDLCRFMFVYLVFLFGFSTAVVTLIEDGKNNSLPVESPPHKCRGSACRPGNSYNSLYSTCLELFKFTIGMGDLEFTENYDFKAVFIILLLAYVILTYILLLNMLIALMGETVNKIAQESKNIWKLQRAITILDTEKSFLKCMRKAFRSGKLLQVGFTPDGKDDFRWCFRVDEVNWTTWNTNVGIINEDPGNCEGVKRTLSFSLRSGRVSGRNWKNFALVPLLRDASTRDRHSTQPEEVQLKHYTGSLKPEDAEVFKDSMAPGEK
Protocol: Mouse Corneal Irritation Test
The irritant nature of capsaicin can be readily assessed at the level of the cornea since this organ is one of the most innervated by C fibers. In this context, according to the preliminary experiments, the application of a very small amount of capsaicin (2 μl at a concentration of 160 μM) to the surface of the cornea of an animal results in a certain number of stereotyped behaviors associated with the irritation and that can be readily listed. Among these are: blinking of the eye, rubbing of the eye instilled with the ipsilateral forelimb, rubbing of the face with both forelimbs, scratching of the ipsilateral face with the hind limb. […] Its appearance is, moreover, also normal. […] It can be concluded from this that the duration of action of capsaicin at these doses is less than 2 minutes.
Summary of the Methodology:
The principle of the series of experiments is to determine whether the compounds of the invention can influence the behavioral response induced by a given amount of capsaicin. The capsaicin is initially diluted to 25 mM in DMSO and diluted, for its final use, in physiological saline with 10% Tween 80. It appears, based on control studies, that, under these conditions, the solvent has no effect.
In practice, the product to be tested, prepared at 25 mM in DMSO and diluted for its final use in physiological saline with 10% Tween 80, at the highest concentration of 500 μM, is administered by local application to the surface of the cornea in a volume of 2 μl, 10 minutes before the application of the capsaicin. The animal receives the ocular instillation of 2 μl of a solution of capsaicin at […] prepared as indicated above. Over the course of a period of observation of 2 minutes following the instillation, the number of times the instilled eye is rubbed by the ipsilateral forelimb is counted for each animal.
For a given group, the percentage protection is calculated as follows: P=100−((average number of scratches of the group treated with the compound/average number of scratches of the group treated with the solvent)×100). […]

TRPV1 receptor = target: T2, TRPV1 receptor (Rattus norvegicus, UniProt O35433); assay: Test for inhibition of the current induced by capsaicin on rat DRGs (whole-cell patch-clamp); assay type: cell-based; settings: DRG neuron; compound at 10 nM; % inhibition of the control capsaicin response; newborn rat DRG neurons
T2 construct: The neurons of the DRG naturally express the TRPV1 receptor; endogenous in cells; host or cells: primary culture of newborn rat dorsal root ganglion neurons
T2 sequence (O35433 whole entry): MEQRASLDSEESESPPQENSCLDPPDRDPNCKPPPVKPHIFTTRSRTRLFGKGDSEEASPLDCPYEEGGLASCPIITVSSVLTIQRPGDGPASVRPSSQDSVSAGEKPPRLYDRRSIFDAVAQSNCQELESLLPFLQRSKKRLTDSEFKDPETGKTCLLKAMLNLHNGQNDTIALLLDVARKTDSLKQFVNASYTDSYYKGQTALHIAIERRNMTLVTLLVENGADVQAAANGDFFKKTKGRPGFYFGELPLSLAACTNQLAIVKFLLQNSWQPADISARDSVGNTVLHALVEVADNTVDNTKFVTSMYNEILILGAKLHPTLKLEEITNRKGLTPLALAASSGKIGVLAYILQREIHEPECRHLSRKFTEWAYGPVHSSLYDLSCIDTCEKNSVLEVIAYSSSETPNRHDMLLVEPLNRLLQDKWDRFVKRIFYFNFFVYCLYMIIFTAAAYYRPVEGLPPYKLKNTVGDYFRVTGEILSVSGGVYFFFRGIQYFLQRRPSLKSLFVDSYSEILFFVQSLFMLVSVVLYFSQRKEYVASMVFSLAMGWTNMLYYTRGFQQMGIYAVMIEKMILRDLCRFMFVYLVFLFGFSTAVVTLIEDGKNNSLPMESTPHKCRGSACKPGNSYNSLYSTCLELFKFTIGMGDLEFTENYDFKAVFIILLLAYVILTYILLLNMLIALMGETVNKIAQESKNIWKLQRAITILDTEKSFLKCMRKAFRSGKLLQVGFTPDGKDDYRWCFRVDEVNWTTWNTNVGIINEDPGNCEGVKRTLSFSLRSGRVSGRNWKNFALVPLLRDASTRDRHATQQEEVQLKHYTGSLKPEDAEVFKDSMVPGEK
Protocol: Test for Inhibition of the Current Induced by Capsaicin on Rat DRGs
Primary Culture of Rat Dorsal Root Ganglion (DRG) Cells:
The neurons of the DRG naturally express the TRPV1 receptor.
Newborn rat DRG primary cultures are prepared from 1-day-old rat pups. Briefly, after dissection, the ganglia are trypsinized and the cells are mechanically dissociated by controlled trituration. The cells are resuspended in an Eagle's basal culture medium containing 10% of fetal calf serum, 25 mM KCl, 2 mM glutamine, 100 μg/ml gentamicin and 50 ng/ml of NGF, and then deposited onto laminin-coated glass cover slips (0.25×10^6 cells per cover slip) which are then placed in 12-well Corning dishes. The cells are incubated at 37° C. in a humidified atmosphere containing 5% CO2 and 95% air. […]
The measuring chambers (volume 800 μl) containing the cell preparation are placed on the platform of an inverted microscope (Olympus IMT2) equipped with Hoffman optics (Modulation Contrast, New York), and observed at the magnification of ×400. […] The overall currents (membrane potential fixed at −60 mV) are recorded with an Axopatch 1D amplifier (Axon Instruments, Foster City, Calif.), connected to a PC controlled by Pclamp8 software (Axon Instrument). The current traces are recorded on paper and simultaneously digitized (sampling frequency 15 to […]) and acquired on the hard drive of the PC. […]

Row | SMILES | % P 500 μM (percentage protection) (TRPV1 receptors) [%] | inhibition at 0.01 µM (TRPV1 receptor) [%] | also measured
1 | O=C(Nc1ccc2c(c1)nc1n2CCC1)c1cc2cc(C(F)(F)F)cnc2n1Cc1ccccc1 [Compound 8, N-(2,3-dihydro-1H-pyrrolo[1,2-a]benzimidazol-6-yl)-1-benzyl-5-trifluoromethyl-1H-pyrrolo[2,3-b]pyridine-2-carboxamide] | 71 |  | 
2 | O=C(Nc1ccc2c(c1)nc1n2CCCC1)c1cc2cc(F)ccc2n1Cc1ccncc1 [Compound 1, N-(1,2,3,4-tetrahydropyrido[1,2-a]benzimidazol-7-yl)-5-fluoro-1-[(pyridin-4-yl)methyl]-1H-indole-2-carboxamide] |  | 37 | 
3 | O=C(Nc1ccc2c(c1)nc1n2CCC1)c1cc2cc(F)ccc2n1Cc1ccncc1 [Compound 5, N-(2,3-dihydro-1H-pyrrolo[1,2-a]benzimidazol-6-yl)-5-fluoro-1-[(pyridin-4-yl)methyl]-1H-indole-2-carboxamide] |  | 53 | 
4 | CC1CN=C2Nc3ccc(NC(=O)c4cc5cc(F)ccc5n4Cc4cccc(F)c4)cc3N21 (stereo not drawn) [Compound 26, N-(2,3-dihydro-3-methylimidazo[1,2-a]benzimidazol-6-yl)-5-fluoro-1-(3-fluorobenzyl)-1H-indole-2-carboxamide] | 46 |  | 
5 | O=C(Nc1ccc2nc3n(c2c1)CCOC3)c1cc2cc(F)ccc2n1Cc1cccc(F)c1 [Compound 15, N-(3,4-dihydro-1H-oxazino[1,4][4,3-a]benzimidazol-7-yl)-5-fluoro-1-(3-fluorobenzyl)-1H-indole-2-carboxamide] | 56 |  | 
6 | O=C(Nc1ccc2nc3ncccn3c2c1)c1cc2cc(F)ccc2n1Cc1cccc(F)c1 |  |  | melting point: 295 to 298 °C
